Measurements as given in patent EP0489581A2, “Cosmetic composition” (UNILEVER PLC, priority 1990, dated 1992).

Test system: skin surface
Assay: Body shampoo streak of 0.1% EtNic against placebo on the other side (erythema meter, Cyclops pyrometer)
Assay type: in vivo, human
Set-up: ERYTHEMA METER AN / ERYTHEMA METER FA / ERYTHEMA METER UA / ERYTHEMA METER BR / ERYTHEMA METER SH / ERYTHEMA METER WA / ERYTHEMA METER HI / ERYTHEMA METER TH / ERYTHEMA METER CA: scale not given here; TEMPERATURE CHANGE FA / TEMPERATURE CHANGE UA / TEMPERATURE CHANGE BR / TEMPERATURE CHANGE SH / TEMPERATURE CHANGE WA / TEMPERATURE CHANGE HI / TEMPERATURE CHANGE TH / TEMPERATURE CHANGE CA / TEMPERATURE CHANGE AN: unit not given here
Details: for ERYTHEMA METER AN / TEMPERATURE CHANGE AN / ERYTHEMA METER CA / TEMPERATURE CHANGE CA / ERYTHEMA METER HI / TEMPERATURE CHANGE HI / ERYTHEMA METER FA / TEMPERATURE CHANGE FA / ERYTHEMA METER BR / TEMPERATURE CHANGE BR / ERYTHEMA METER SH / TEMPERATURE CHANGE SH / ERYTHEMA METER TH / TEMPERATURE CHANGE TH / ERYTHEMA METER UA / TEMPERATURE CHANGE UA / ERYTHEMA METER WA / TEMPERATURE CHANGE WA: 0.1% EtNic; for ERYTHEMA METER AN / TEMPERATURE CHANGE AN: ankle; for ERYTHEMA METER CA / TEMPERATURE CHANGE CA: calf; for ERYTHEMA METER HI / TEMPERATURE CHANGE HI: hip; for ERYTHEMA METER FA / TEMPERATURE CHANGE FA: mid forearm; for ERYTHEMA METER BR / TEMPERATURE CHANGE BR: side breast; for ERYTHEMA METER SH / TEMPERATURE CHANGE SH: side shoulder; for ERYTHEMA METER TH / TEMPERATURE CHANGE TH: thigh; for ERYTHEMA METER UA / TEMPERATURE CHANGE UA: upper arm; for ERYTHEMA METER WA / TEMPERATURE CHANGE WA: waist
Method: A subject showered in the conventional way but without shampoo or soap. The redness and temperature of the skin surface was measured at symmetrical points from the mid forearm down the body to the ankle, after the excess water had been removed by light towelling. The person re-showered and between 2 and 3 grammes of shampoo according to Example 5 was streaked down one side of the body in a broad line. The body shampoo was rubbed into a lather periodically during the two minutes. A placebo shampoo of corresponding composition was applied first to one side of the body and then the time started when the shampoo with the ethyl nicotinate was applied to the other side. […] The redness was measured with the erythema meter whilst the temperature was measured with a Cyclops pyrometer at ten sites on each side. The time was taken as the mean of the two times for each pair of sites. The time course was followed for about 50 minutes. After about 210 minutes the experiment was repeated, but treating the opposite sides. The result shown below are the differences in redness and temperature of the corresponding sites.

[1] = left hand side, mean time 0.00 (baseline), difference of corresponding sites
[2] = left hand side, mean time 17.56, difference of corresponding sites
[3] = left hand side, mean time 31.56, difference of corresponding sites
[4] = left hand side, mean time 44.89, difference of corresponding sites
[5] = left hand side, mean time 59.61, difference of corresponding sites
[6] = left hand side, mean time 77.21, difference of corresponding sites
[7] = left hand side, time 10.00, mean time 10.37, difference of corresponding sites
[8] = left hand side, time 25.00, mean time 24.98, difference of corresponding sites
[9] = left hand side, time 38.00, mean time 38.30, difference of corresponding sites
[10] = left hand side, time 53.00, mean time 52.87, difference of corresponding sites
[11] = right hand side, mean time 0.00 (baseline), difference of corresponding sites
[12] = right hand side, time 10.00, mean time 9.79, difference of corresponding sites
[13] = right hand side, time 26.00, mean time 26.13, difference of corresponding sites
[14] = right hand side, time 42.00, mean time 42.25, difference of corresponding sites
[15] = right hand side, time 210.00, mean time 209.78, difference of corresponding sites
[16] = all the sites, shampoo according to Example 5, two minutes

CCOC(=O)c1cccnc1 [EtNic, ethyl nicotinate]
ERYTHEMA METER AN [1]: -0.53
TEMPERATURE CHANGE AN [1]: -0.10
TEMPERATURE CHANGE AN [2]: 0.30
TEMPERATURE CHANGE AN [3]: -0.20
TEMPERATURE CHANGE AN [4]: 0.70
TEMPERATURE CHANGE AN [5]: 0.80
TEMPERATURE CHANGE AN [6]: 0.30
ERYTHEMA METER AN [7]: 0.29
ERYTHEMA METER AN [8]: 0.56
ERYTHEMA METER AN [9]: -0.43
ERYTHEMA METER AN [10]: -0.25
ERYTHEMA METER CA [1]: -0.26
TEMPERATURE CHANGE CA [1]: -0.30
TEMPERATURE CHANGE CA [2]: 2.90
TEMPERATURE CHANGE CA [3]: 2.30
TEMPERATURE CHANGE CA [4]: 1.10
TEMPERATURE CHANGE CA [5]: 0.90
TEMPERATURE CHANGE CA [6]: 0.50
ERYTHEMA METER CA [7]: 0.26
ERYTHEMA METER CA [8]: 0.41
ERYTHEMA METER CA [9]: -0.17
ERYTHEMA METER CA [10]: -0.12
ERYTHEMA METER HI [1]: 0.03
TEMPERATURE CHANGE HI [1]: 0.10
TEMPERATURE CHANGE HI [2]: 1.10
TEMPERATURE CHANGE HI [3]: 3.70
TEMPERATURE CHANGE HI [4]: 3.30
TEMPERATURE CHANGE HI [5]: 2.90
TEMPERATURE CHANGE HI [6]: 2.20
ERYTHEMA METER HI [7]: 0.74
ERYTHEMA METER HI [8]: 0.31
ERYTHEMA METER HI [9]: 0.12
ERYTHEMA METER HI [10]: 0.13
ERYTHEMA METER FA [1]: -0.65
TEMPERATURE CHANGE FA [1]: -0.20
TEMPERATURE CHANGE FA [2]: -0.50
TEMPERATURE CHANGE FA [3]: 0.20
TEMPERATURE CHANGE FA [4]: -0.30
TEMPERATURE CHANGE FA [5]: 0.20
TEMPERATURE CHANGE FA [6]: 0.00
ERYTHEMA METER FA [7]: 0.39
ERYTHEMA METER FA [8]: 0.00
ERYTHEMA METER FA [9]: -0.06
ERYTHEMA METER FA [10]: 0.05
ERYTHEMA METER BR [1]: -0.12
TEMPERATURE CHANGE BR [1]: -1.10
TEMPERATURE CHANGE BR [2]: 4.80
TEMPERATURE CHANGE BR [3]: 4.80
TEMPERATURE CHANGE BR [4]: 4.30
TEMPERATURE CHANGE BR [5]: 1.70
TEMPERATURE CHANGE BR [6]: 1.00
ERYTHEMA METER BR [7]: 1.09
ERYTHEMA METER BR [8]: 0.71
ERYTHEMA METER BR [9]: 0.91
ERYTHEMA METER BR [10]: 0.41
ERYTHEMA METER SH [1]: 0.00
TEMPERATURE CHANGE SH [1]: 0.40
TEMPERATURE CHANGE SH [2]: 3.40
TEMPERATURE CHANGE SH [3]: 4.50
TEMPERATURE CHANGE SH [4]: 3.30
TEMPERATURE CHANGE SH [5]: 1.50
TEMPERATURE CHANGE SH [6]: 0.30
ERYTHEMA METER SH [7]: 1.08
ERYTHEMA METER SH [8]: 1.06
ERYTHEMA METER SH [9]: 0.77
ERYTHEMA METER SH [10]: 0.38
ERYTHEMA METER TH [1]: -0.23
TEMPERATURE CHANGE TH [1]: 0.10
TEMPERATURE CHANGE TH [2]: 3.70
TEMPERATURE CHANGE TH [3]: 3.20
TEMPERATURE CHANGE TH [4]: 2.50
TEMPERATURE CHANGE TH [5]: 1.90
TEMPERATURE CHANGE TH [6]: 1.30
ERYTHEMA METER TH [7]: 0.47
ERYTHEMA METER TH [8]: 0.43
ERYTHEMA METER TH [9]: 0.28
ERYTHEMA METER TH [10]: 0.17
ERYTHEMA METER UA [1]: -0.28
TEMPERATURE CHANGE UA [1]: 0.00
TEMPERATURE CHANGE UA [2]: 3.10
TEMPERATURE CHANGE UA [3]: 3.60
TEMPERATURE CHANGE UA [4]: 2.70
TEMPERATURE CHANGE UA [5]: 1.80
TEMPERATURE CHANGE UA [6]: 1.40
ERYTHEMA METER UA [7]: 1.35
ERYTHEMA METER UA [8]: 0.67
ERYTHEMA METER UA [9]: 0.82
ERYTHEMA METER UA [10]: 0.23
ERYTHEMA METER WA [1]: 0.03
TEMPERATURE CHANGE WA [1]: -0.30
TEMPERATURE CHANGE WA [2]: 4.80
TEMPERATURE CHANGE WA [3]: 6.80
TEMPERATURE CHANGE WA [4]: 6.40
TEMPERATURE CHANGE WA [5]: 5.00
TEMPERATURE CHANGE WA [6]: 3.60
ERYTHEMA METER WA [7]: 0.66
ERYTHEMA METER WA [8]: 0.44
ERYTHEMA METER WA [9]: 0.79
ERYTHEMA METER WA [10]: 0.05
ERYTHEMA METER AN [11]: 0.08
ERYTHEMA METER AN [12]: 0.62
ERYTHEMA METER AN [13]: 0.57
ERYTHEMA METER AN [14]: 0.57
ERYTHEMA METER AN [15]: 0.53
ERYTHEMA METER CA [11]: 0.06
ERYTHEMA METER CA [12]: 0.87
ERYTHEMA METER CA [13]: 0.75
ERYTHEMA METER CA [14]: 0.58
ERYTHEMA METER CA [15]: 0.26
ERYTHEMA METER HI [11]: 0.44
ERYTHEMA METER HI [12]: 0.92
ERYTHEMA METER HI [13]: 0.55
ERYTHEMA METER HI [14]: 0.50
ERYTHEMA METER HI [15]: -0.03
ERYTHEMA METER FA [11]: 0.20
ERYTHEMA METER FA [12]: -0.28
ERYTHEMA METER FA [13]: 0.51
ERYTHEMA METER FA [14]: 0.41
ERYTHEMA METER FA [15]: 0.65
ERYTHEMA METER BR [11]: 0.06
ERYTHEMA METER BR [12]: 1.20
ERYTHEMA METER BR [13]: 1.48
ERYTHEMA METER BR [14]: 0.72
ERYTHEMA METER BR [15]: 0.12
ERYTHEMA METER SH [11]: 0.12
ERYTHEMA METER SH [12]: 1.81
ERYTHEMA METER SH [13]: 1.61
ERYTHEMA METER SH [14]: 0.81
ERYTHEMA METER SH [15]: 0.00
ERYTHEMA METER TH [11]: 0.07
ERYTHEMA METER TH [12]: 0.87
ERYTHEMA METER TH [13]: 0.43
ERYTHEMA METER TH [14]: 0.04
ERYTHEMA METER TH [15]: 0.23
ERYTHEMA METER UA [11]: 0.38
ERYTHEMA METER UA [12]: 0.89
ERYTHEMA METER UA [13]: 1.40
ERYTHEMA METER UA [14]: 0.74
ERYTHEMA METER UA [15]: 0.28
ERYTHEMA METER WA [11]: 0.06
ERYTHEMA METER WA [12]: 1.16
ERYTHEMA METER WA [13]: 1.09
ERYTHEMA METER WA [14]: 0.70
ERYTHEMA METER WA [15]: -0.03
redness [16]: increase
temperature [16]: increase
maximum temperature difference (at the waist): seven
